Our source for the Ratio Ki and Ki values is ChEMBL document CHEMBL1153906 (Bioorg Med Chem, 2009).

Experiment [1] in a line: Selectivity ratio of Ki for human carbonic anhydrase 2 to Ki for Caenorhabditis elegans carbonic anhydrase 4b.
A short description of experiment [2]: Inhibition of Caenorhabditis elegans carbonic anhydrase 4b by CO2 hydration assay.

One may read the Ki as a measure of affinity in units of concentration, obtained from inhibition or displacement. On to `NNC(=O)c1[nH]c2ccc(S(N)(=O)=O)cc2c1-c1c(F)c(F)c(F)c(F)c1F`, for which, in experiment [1], the Ratio Ki came out at 0.02. The compound also displayed a Ki in experiment [2] of 260 nM.
Regarding `NNC(=O)c1[nH]c2ccc(S(N)(=O)=O)cc2c1-c1ccccc1F`, the Ratio Ki in experiment [1] was 2.88. In experiment [2], this compound returned a Ki of 12.5 nM.
In the same order, the values of `NNC(=O)c1[nH]c2ccc(S(N)(=O)=O)cc2c1-c1ccccc1Cl` are 0.1 and 372 nM.
For the compound `Cc1ccc(-c2c(C(=O)NN)[nH]c3ccc(S(N)(=O)=O)cc23)cc1`, the Ratio Ki in experiment [1] worked out at 4.95. In experiment [2], this compound returned a Ki of 12.2 nM.
In the same order, the values of `Cc1cccc(-c2c(C(=O)NN)[nH]c3ccc(S(N)(=O)=O)cc23)c1` are 3.63 and 13.3 nM.
`COc1cccc(-c2c(C(=O)NN)[nH]c3ccc(S(N)(=O)=O)cc23)c1`: the Ratio Ki in experiment [1] is 0.02. Moreover, the Ki in experiment [2] was 330 nM.
As to `Cc1ccccc1-c1c(C(=O)NN)[nH]c2ccc(S(N)(=O)=O)cc12`, in experiment [1], the Ratio Ki was 0.03. The Ki in experiment [2] was found to be 326 nM.
As for `NNC(=O)c1[nH]c2ccc(S(N)(=O)=O)cc2c1-c1ccc(Br)cc1`, the Ratio Ki in experiment [1] stood at 3.54. This compound also showed a Ki in experiment [2] of 11.5 nM.
Regarding `NNC(=O)c1[nH]c2ccc(S(N)(=O)=O)cc2c1-c1ccccc1Br`, the Ratio Ki in experiment [1] is 0.18. In experiment [2], this compound returned a Ki of 260 nM.
On the same counts, the results for `NNC(=O)c1[nH]c2ccc(S(N)(=O)=O)cc2c1-c1ccc(F)cc1` are 2.58 and 6 nM.
As for `NNC(=O)c1[nH]c2ccc(S(N)(=O)=O)cc2c1-c1cccc(Br)c1`, the Ratio Ki in experiment [1] was found to be 4.03. The affinity in experiment [2] corresponds to a Ki of 13.4 nM.
On to `NNC(=O)c1[nH]c2ccc(S(N)(=O)=O)cc2c1-c1cccc(Cl)c1`, for which the Ratio Ki in experiment [1] was 0.91. The compound also registered a Ki in experiment [2] of 10.1 nM.
With `NNC(=O)c1[nH]c2ccc(S(N)(=O)=O)cc2c1-c1ccc(Cl)cc1`, the Ratio Ki in experiment [1] worked out at 1.78. Further, the Ki in experiment [2] stood at 6.5 nM.
In the same order, the values of `NNC(=O)c1[nH]c2ccc(S(N)(=O)=O)cc2c1-c1cccc(F)c1` are 0.86 and 9.9 nM.
